Changes are numbered by the printed parent chain.
Tests used:
wild-type 5-HT3 receptor = target: T1, wild-type 5-HT3 receptor (Mus musculus, UniProt P23979); conditions: maximum number of binding sites, n = 5
T1 sequence (P23979 24-483 isoform P23979-2 limits assumed): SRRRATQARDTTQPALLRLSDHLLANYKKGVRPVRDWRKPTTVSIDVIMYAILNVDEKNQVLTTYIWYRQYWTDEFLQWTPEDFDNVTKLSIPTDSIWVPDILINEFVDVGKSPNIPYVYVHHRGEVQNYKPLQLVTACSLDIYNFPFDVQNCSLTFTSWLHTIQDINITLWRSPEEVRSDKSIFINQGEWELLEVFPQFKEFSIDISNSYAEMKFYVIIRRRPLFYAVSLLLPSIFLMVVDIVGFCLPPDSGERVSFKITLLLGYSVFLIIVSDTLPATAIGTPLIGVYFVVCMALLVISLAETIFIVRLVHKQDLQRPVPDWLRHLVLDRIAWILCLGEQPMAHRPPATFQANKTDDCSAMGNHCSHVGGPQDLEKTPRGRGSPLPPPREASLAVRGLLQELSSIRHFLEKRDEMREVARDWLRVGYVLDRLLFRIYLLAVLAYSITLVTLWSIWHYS

[1] = target: T2, R344H mutant 5-HT3 receptor (Mus musculus, UniProt P23979, R349H); conditions: maximum number of binding sites, n = 9
T2 sequence (P23979 24-483 isoform P23979-2 R349H limits assumed): T1 sequence (P23979 24-483 isoform P23979-2 limits assumed) with R326H

[2] = target: T3, P391R mutant 5-HT3 receptor (Mus musculus, UniProt P23979, P402R); conditions: maximum number of binding sites, n = 5
T3 sequence (P23979 24-483 isoform P23979-2 P396R limits assumed): T1 sequence (P23979 24-483 isoform P23979-2 limits assumed) with P373R

Compound: CN1C2CCCC1CC(NC(=O)c1nn(C)c3ccccc13)C2 (stereo not drawn) [[^3H]Granisetron]
- Bmax (wild-type 5-HT3 receptor): 567 ± 149 fmol/mg
- Bmax [1]: 853 ± 232 fmol/mg
- Bmax [2]: 353 ± 113 fmol/mg
